Test results from patent publication US20200390689A1, “CERDULATINIB-CONTAINING TOPICAL SKIN PHARMACEUTICAL COMPOSITIONS AND USES THEREOF” (Dermavant Sciences GmbH, priority 2018, published 2020).
Like-named read-outs stand apart in the source and are kept apart here.

Experiments:
[1] = system: IL-4 (JAK1/3-mediated) STAT6 Y641 phosphorylation; assay: IL-4 stimulated STAT6 Y641 phosphorylation in human whole blood; assay type: cell-based
Description: (§1) To evaluate downstream signaling following cytokine stimulation, human whole blood was stimulated with IL-2 (JAK1/3-mediated signaling), which results in phosphorylation of STAT5 at tyrosine residue 694 (Y694). […] IL-6 (JAK1/2/Tyk2) stimulation leads to STAT3 Y705 phosphorylation in monocytes.

[2] = system: IL-4-mediated upregulation of CD23 and CD25 on monocytes; assay: IL-4-mediated upregulation of cell surface markers CD23 and CD25 on monocytes; assay type: cell-based; details: Homo sapiens, Monocyte
[3] = system: IL-2 (JAK1/3-mediated signaling) STAT5 Y694 phosphorylation; assay: IL-2 stimulated STAT5 Y694 phosphorylation in human whole blood; assay type: cell-based
Description: as §1

[4] = system: GM-CSF (JAK2-mediated) STAT5 Y694 phosphorylation; assay: GM-CSF stimulated STAT5 Y694 phosphorylation in human whole blood; assay type: cell-based; details: Monocyte, monocytes, read-out: IC50, GM-CSF induced STAT5 Y694 phosphorylation
[5] = system: DNCB-induced atopic dermatitis; assay: DNCB-induced atopic dermatitis in the NC/Nga mouse model; assay type: in vivo
Procedure: Atopic dermatitis was induced by repeated application of DNCB (1-chloro-2,4-dinitrobenzene) to the dorsal skin of the ears/back. […] Lesions were evaluated on days 2, 8, 11, and 14.
Macroscopic lesion severity scores are depicted in FIG. 7. Macroscopic skin lesion severity was measured on the indicated Study Days by assessing (0-3 scale) the presence of erythema, edema, excoriation/erosion, and dryness scaling on the ears, neck, and dorsal skin of animals.
Serum IgE levels are depicted in FIG. 8. Serum samples obtained on Study Day 15 were utilized for IgE quantitation. Select cytokine data from the study are depicted in FIG. 9. Skin samples harvested on Day 15 were analyzed by LUMINEX for inflammatory cytokine levels for IL-4, IL-5, IL-13, and IL-31.

vitiligo = assay: Study DMVT-502-9025, mouse model of vitiligo; assay type: in vivo
Procedure: The model mimics human vitiligo by inducing epidermal depigmentation with autoreactive CD8+ T-cell accumulation. A schematic of the model is depicted in FIG. 15. […] Ten mice were used in the study: three REX3 reporter mice for cytokines CXCL9 and CXCL10 and seven SCF (stem cell factor) mice. The vitiligo study timeline is depicted in FIG. 16. The following assessments were performed during the study: • Blinded scoring of ears, tail, nose, and ventral feet (0-5 scale) • Epidermal, dermal, spleen, and lymph node PMEL (premelanosome protein) cell count • Epidermal/dermal APC (antigen-presenting cell) count • Keratinocyte cytokine expression

JAK1 = JAK1 (Homo sapiens, UniProt P23458); assay: cell-based
Sequence of JAK1 (P23458 whole entry): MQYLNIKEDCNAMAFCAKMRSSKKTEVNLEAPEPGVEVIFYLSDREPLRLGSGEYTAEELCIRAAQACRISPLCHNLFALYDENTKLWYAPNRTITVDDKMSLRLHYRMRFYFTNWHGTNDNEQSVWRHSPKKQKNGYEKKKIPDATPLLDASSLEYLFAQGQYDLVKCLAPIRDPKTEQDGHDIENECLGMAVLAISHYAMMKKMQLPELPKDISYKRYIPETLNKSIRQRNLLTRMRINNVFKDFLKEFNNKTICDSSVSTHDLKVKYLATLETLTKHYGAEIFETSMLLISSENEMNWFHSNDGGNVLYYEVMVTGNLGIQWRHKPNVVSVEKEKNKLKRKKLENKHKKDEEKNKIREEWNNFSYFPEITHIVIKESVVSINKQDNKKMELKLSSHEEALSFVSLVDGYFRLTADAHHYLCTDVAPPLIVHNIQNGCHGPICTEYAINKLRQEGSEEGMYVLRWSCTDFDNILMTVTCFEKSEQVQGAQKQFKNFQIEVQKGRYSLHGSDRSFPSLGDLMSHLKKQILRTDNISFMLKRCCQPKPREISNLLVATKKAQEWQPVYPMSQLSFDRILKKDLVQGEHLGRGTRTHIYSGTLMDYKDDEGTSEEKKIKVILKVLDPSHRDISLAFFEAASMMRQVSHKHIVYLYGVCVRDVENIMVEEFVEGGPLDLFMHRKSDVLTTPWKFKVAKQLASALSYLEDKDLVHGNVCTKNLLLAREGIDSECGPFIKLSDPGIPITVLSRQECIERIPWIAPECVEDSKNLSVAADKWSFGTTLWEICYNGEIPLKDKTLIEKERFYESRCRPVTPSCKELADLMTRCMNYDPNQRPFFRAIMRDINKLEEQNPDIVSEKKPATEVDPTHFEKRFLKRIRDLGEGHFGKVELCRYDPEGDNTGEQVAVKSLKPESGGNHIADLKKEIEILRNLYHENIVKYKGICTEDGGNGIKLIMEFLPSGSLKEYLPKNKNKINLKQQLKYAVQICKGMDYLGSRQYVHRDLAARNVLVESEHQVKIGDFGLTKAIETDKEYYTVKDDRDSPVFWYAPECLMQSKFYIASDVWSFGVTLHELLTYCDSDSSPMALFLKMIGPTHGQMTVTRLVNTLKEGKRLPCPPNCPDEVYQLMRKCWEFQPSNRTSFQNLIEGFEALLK

JAK2 = JAK2 (Homo sapiens, UniProt O60674); assay: cell-based
Sequence of JAK2 (O60674 whole entry): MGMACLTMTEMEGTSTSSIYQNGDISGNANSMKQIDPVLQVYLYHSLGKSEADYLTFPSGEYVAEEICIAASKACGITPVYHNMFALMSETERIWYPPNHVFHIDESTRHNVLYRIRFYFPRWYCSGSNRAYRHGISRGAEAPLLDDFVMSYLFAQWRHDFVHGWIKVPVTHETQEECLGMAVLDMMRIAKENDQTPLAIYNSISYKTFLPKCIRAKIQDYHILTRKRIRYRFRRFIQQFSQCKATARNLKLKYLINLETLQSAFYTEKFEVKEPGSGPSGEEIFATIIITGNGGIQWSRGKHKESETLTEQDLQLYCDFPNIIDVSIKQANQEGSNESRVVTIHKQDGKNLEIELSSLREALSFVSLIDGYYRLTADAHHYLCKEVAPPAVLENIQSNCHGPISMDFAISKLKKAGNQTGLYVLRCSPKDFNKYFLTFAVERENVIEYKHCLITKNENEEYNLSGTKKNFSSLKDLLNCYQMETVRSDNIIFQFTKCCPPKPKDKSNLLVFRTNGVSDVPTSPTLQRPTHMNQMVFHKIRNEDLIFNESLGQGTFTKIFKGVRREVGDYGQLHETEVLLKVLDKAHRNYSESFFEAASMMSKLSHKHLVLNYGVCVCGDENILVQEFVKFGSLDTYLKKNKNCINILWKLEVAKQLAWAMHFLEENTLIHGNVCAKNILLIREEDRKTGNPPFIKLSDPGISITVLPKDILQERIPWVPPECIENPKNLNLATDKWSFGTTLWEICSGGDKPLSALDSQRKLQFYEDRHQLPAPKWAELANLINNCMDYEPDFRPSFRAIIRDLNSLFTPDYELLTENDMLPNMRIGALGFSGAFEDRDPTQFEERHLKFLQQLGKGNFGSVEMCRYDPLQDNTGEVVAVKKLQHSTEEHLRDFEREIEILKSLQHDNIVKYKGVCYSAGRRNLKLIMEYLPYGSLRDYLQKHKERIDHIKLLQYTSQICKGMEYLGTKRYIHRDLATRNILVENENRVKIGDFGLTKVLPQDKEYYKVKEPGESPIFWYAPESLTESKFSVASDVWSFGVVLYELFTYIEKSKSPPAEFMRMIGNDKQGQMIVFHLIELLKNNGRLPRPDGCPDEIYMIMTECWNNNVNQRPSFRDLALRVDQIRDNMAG

[6] = system: JAK1/JAK3-dependent signaling pathways; assay: Cytokine-mediated STAT phosphorylation in peripheral blood mononuclear cells (phospho-flow cytometry); assay type: cell-based; details: Homo sapiens; PBMC; T cells and monocytes
[7] = system: IL-6 (JAK1/2/Tyk2) STAT3 Y705 phosphorylation; assay: IL-6 stimulated STAT3 Y705 phosphorylation in human whole blood; assay type: cell-based; details: Monocyte, monocytes
Description: as §1

Tyk2 = molecular target: T1, Tyk2 (Homo sapiens, UniProt P29597); assay: DiscoveRx cellular platform, Tyk2; assay type: cell-based
T1 construct: DiscoveRx
T1 sequence (P29597 whole entry): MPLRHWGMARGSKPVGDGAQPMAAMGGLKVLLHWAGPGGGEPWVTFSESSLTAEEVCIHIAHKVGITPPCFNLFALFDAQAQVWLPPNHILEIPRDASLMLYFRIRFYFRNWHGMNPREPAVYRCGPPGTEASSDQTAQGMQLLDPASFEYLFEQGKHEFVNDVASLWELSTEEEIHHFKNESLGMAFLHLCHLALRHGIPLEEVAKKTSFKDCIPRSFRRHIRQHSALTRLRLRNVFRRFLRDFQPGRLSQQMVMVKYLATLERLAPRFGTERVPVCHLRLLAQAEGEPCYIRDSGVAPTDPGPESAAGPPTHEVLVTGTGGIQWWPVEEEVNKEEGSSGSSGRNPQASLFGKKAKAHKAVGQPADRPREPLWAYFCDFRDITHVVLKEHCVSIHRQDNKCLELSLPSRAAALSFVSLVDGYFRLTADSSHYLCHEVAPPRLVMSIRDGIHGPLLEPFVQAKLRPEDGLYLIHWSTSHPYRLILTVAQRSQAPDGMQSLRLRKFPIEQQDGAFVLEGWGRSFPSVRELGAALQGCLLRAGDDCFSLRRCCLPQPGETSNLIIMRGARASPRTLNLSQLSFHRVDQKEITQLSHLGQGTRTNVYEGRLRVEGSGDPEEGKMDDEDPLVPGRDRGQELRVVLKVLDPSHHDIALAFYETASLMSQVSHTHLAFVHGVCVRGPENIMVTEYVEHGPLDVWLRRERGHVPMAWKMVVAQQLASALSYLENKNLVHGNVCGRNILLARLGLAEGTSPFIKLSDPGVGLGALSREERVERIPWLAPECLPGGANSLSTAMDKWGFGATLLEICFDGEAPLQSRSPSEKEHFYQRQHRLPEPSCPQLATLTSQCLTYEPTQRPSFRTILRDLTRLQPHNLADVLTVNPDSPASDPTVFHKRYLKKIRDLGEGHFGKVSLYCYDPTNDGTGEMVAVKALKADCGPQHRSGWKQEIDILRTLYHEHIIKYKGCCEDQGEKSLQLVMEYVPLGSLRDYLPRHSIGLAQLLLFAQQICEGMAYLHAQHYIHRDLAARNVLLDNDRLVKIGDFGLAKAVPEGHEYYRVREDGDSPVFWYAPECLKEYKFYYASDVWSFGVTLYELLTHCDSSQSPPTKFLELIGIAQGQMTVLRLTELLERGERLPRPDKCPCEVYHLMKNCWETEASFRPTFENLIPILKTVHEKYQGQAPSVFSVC

Syk = molecular target: T2, Syk (Homo sapiens, UniProt P43405); assay: DiscoveRx cellular platform, Syk; assay type: cell-based
T2 construct: DiscoveRx

[8] = system: monocyte differentiation into immature DCs; assay: IL-4/GM-CSF-mediated monocyte differentiation to immature dendritic cells (flow cytometry); assay type: cell-based; details: Homo sapiens, 120 h, purified monocytes, CD1a expression after five days
Procedure: Dendritic cells (DCs) are important antigen presenting cells that play an integral role in mediating inflammatory skin diseases. A subset of DCs are derived from monocytes and this differentiation is driven by IL-4/GM-CSF co-stimulation. The ability of DMVT-502 to disrupt the signaling responsible for monocyte differentiation into immature DCs was assessed by flow cytometry. […] Five days later, cells were stained for CD14 (monocyte marker) and CD1a (immature dendritic cell marker) and assessed for immature DC differentiation.

[9] = 30 and 60 mg/kg oral, vs vehicle

## CCS(=O)(=O)N1CCN(c2ccc(Nc3ncc(C(N)=O)c(NC4CC4)n3)cc2)CC1 [DMVT-502, Cerdulatinib]
[1]; B-cell, CD19+ B cells
  IC50: 920 nM
[1]; CD4+ T cells
  IC50: 580 nM
[1]; Monocyte, CD14+ monocytes
  IC50: 998 nM
[1]; T-cell, CD8+ T cells
  IC50: 330 nM
[2]; read-out: IC50, IL-4-mediated upregulation of CD23
  IC50: 230 nM
[2]; read-out: IC50, IL-4-mediated upregulation of CD25
  IC50: 420 nM
[3]; CD4+ T cells
  IC50: 300 nM
[3]; T-cell, CD8+ T cells
  IC50: 160 nM
[4]
  IC50: ~4000 nM
[5]; Day 15, topical treatment
  Pro-inflammatory cytokine levels in skin: limited suppression
[5]; Study Day 15, topical therapy
  Serum IgE levels: trends towards reduction
vitiligo; 60 mg/kg oral
  CD3+, CD8− T-cell counts in the spleen: significantly reduced
  Host T-cell counts in blood: significantly decreased
  PMEL T-cell counts in dermis and blood: significantly reduced
vitiligo; 60 mg/kg oral, vs vehicle
  APCs in the dermal skin compartment and Langerhans cells in the epidermal skin compartment: significantly reduced
vitiligo; 30 and 60 mg/kg once daily oral, 5 weeks, vs vehicle
  Vitiligo scores: significantly decreased
vitiligo; 30 and 60 mg/kg oral
  Host-derived total T-cell counts in the spleen: significantly reduced
vitiligo; [9]
  APC counts in lymph nodes and the spleen: significantly reduced
  PMEL T-cell counts in the epidermis and dermis: significantly reduced
vitiligo; 30 or 60 mg/kg oral
  CXCL9 and CXCL10 expression in lymph node APCs: Reduced
  Lymph node or spleen PMEL T cells: no significant differences
vitiligo; SCF/REX3 mice, vs vehicle
  CXCL9, CXCL10, and dual expression in keratinocytes: trends towards reduced
vitiligo; between treatment groups
  Total keratinocyte counts: No decrease
JAK1
  IC50: 98 nM
JAK2
  IC50: 4860 nM
[6]
  IC50: < 200 nM
[7]
  IC50: 260 nM
Tyk2
  IC50: 1720 nM
Syk
  IC50: 1280 nM
[8]
  IC50: ~100 nM
